Where two headings read alike, the source gives them in different places. Marks after values point to notes of the source that are not given here.
Legend:
[1] = test system: panel of over 200 human kinases; assay: Kinase selectivity screen in a panel of over 200 human kinases; type: biochemical; settings: for # off-target kinases >50% INH/# total kinases tested @ 1 μM: unpublished
[2] = test system: cells of myeloid progenitor lineage (basophils); assay: Inhibition of myeloid lineage progenitor cell activation (FcR signaling, basophils); type: cell-based; settings: (±SEM)
[3] = test system: B cells; assay: Inhibition of B cell activation (B-cell receptor signalling); type: cell-based; settings: (±SEM)
[4] = test system: B cells (CD69); settings: B cell activation, human whole blood, literature values, cited from earlier work
[5] = test system: basophils (CD63); settings: basophil activation, human whole blood, literature values, cited from earlier work
[6] = test system: panel of over 200 human kinases; settings: Crawford, et al., cited from earlier work
[7] = Safety analysis of previous fenebrutinib clinical trials in RA, SLE and CSU
[8] = without specific elimination procedures; cited from earlier work
[9] = patients with autoimmune conditions

C=CC(=O)N1CCC[C@@H](n2c(=O)n(-c3ccc(Oc4ccccc4)cc3)c3c(N)nccc32)C1 [Tolebrutinib]
# off-target kinases >50% INH/# total kinases tested @ 1 μM [1]: 19/218 ^d | # off-target kinases >50% INH/# total kinases tested @ 1 μM ([1]; listed as TOL): 19/218 | EC50 [2]: 80 nM | EC90 [2]: 281 nM | EC50 [3]: 26 nM | EC90 [3]: 84 nM | IC50 [4]: 10 nM | IC50 [5]: 166 nM

C[C@H]1CN(C2COC2)CCN1c1ccc(Nc2cc(-c3ccnc(N4CCn5c(cc6c5CC(C)(C)C6)C4=O)c3CO)cn(C)c2=O)nc1 [Fenebrutinib, (S)-2-(3′-(hydroxymethyl)-1-methyl-5-((5-(2-methyl-4-(oxetan-3-yl)piperazin-1-yl)pyridin-2-yl)amino)-6-oxo-1,6-dihydro-[3,4′-bipyridin]-2′-yl)-7,7-dimethyl-2,3,4,6,7,8-hexahydro-1H-cyclopenta[4,5]pyrrolo[1,2-a]pyrazin-1-one]
EC50 [2]: 15 nM | EC90 [2]: 62 nM | EC50 [3]: 8 nM | EC90 [3]: 65 nM | # off-target kinases >50% INH/# total kinases tested @ 1 μM ([6]; J Med Chem 2018, listed as FEN): 3/286 | # off-target kinases >50% INH/# total kinases tested @ 1 μM ([6]; J Med Chem 2018): 2/286 ^a | IC50 [4]: 8.4 nM | IC50 ([4]; listed as FEN): 8 nM | IC50 [5]: 30.7 nM | IC50 ([5]; listed as FEN): 31 nM | Headache, investigator-reported events ([7]; 200 mg twice daily, n = 299): 16 (5.4%) patients (%) | Nasopharyngitis, investigator-reported events ([7]; 200 mg twice daily, n = 299): 18 (6.0%) patients (%) | Nausea, investigator-reported events ([7]; 200 mg twice daily, n = 299): 17 (5.7%) patients (%) | Number of patients with AE leading to treatment withdrawal ([7]; 200 mg twice daily, n = 299): 32 (10.7%) patients (%) | Number of patients with Serious AE ([7]; 200 mg twice daily, n = 299): 18 (6.0%) patients (%) | Number of patients with Serious AE related to blinded fenebrutinib ([7]; 200 mg twice daily, n = 299): 6 (2.0%) patients (%) | Number of patients with Study withdrawal due to AE ([7]; 200 mg twice daily, n = 299): 17 (5.7%) patients (%) | Total adverse events (AEs) ([7]; 200 mg twice daily, n = 299, RA/SLE/CSU trials): 507 | Number of patients with Fatal AE ([7]; 200 mg twice daily, n = 299, death deemed unrelated to fenebrutinib): 1 (0.3%) patients (%) | Percent of patients with infection adverse events ([7]; CSU, 200 mg, n = 52, median follow-up 56 days): 32.7% (n = 52) | Percent of patients with infection adverse events ([7]; RA cohort 1, 200 mg, n = 110, median follow-up 84 days): 10.9% (n = 110) | Percent of patients with infection adverse events ([7]; RA cohort 2, 200 mg, n = 49, median follow-up 84 days): 6.1% (n = 49) | Percent of patients with infection adverse events ([7]; SLE, 200 mg, n = 88, median follow-up 336 days): 46.6% (n = 88) | infection rates in fenebrutinib arms compared to placebo ([7]; background immunosuppressant therapy in RA and SLE): no imbalance of infection rates | patients with serious infections ([7]; combined fenebrutinib arms): 2.0% | bleeding or bruising, patients ([7]; fenebrutinib arms): 7.7% | Hy's law cases [7, 9]: no Hy's law cases | risk causally associated with fenebrutinib (liver aminotransferase elevations) [7, 9]: Asymptomatic and reversible liver aminotransferase elevations were the only risk causally associated with fenebrutinib | atrial fibrillations, flutters, or other supraventricular tachyarrhythmias ([7]; randomized clinical trial patients): No fenebrutinib randomized clinical trial patients had atrial fibrillations, flutters, or other supraventricular tachyarrhythmias

C=CC(=O)N1CCC(CNc2ncnc(N)c2-c2ccc(Oc3ccccc3)cc2)CC1 [Evobrutinib]
off-target kinases inhibited by >50% / kinases tested at 10 μM ([1]; 10 μM): 18/218 | EC50 [2]: 171 nM | EC90 [2]: 3100 nM | EC50 [3]: 161 nM | EC90 [3]: 524 nM | # off-target kinases >50% INH/# total kinases tested @ 1 μM ([6]; J Med Chem 2018, listed as EVO): 3/221 | # off-target kinases >50% INH/# total kinases tested @ 1 μM ([6]; J Med Chem 2018): 3/221 ^a | IC50 [4]: 84 nM | IC50 [5]: 1660 nM

C/C(O)=C(\C#N)C(=O)Nc1ccc(C(F)(F)F)cc1 [teriflunomide]
time to lower plasma teriflunomide concentrations to 0.02 mg/L [8]: up to 2 years
